Results taken from PubChem BioAssay AID2060501 (Molecular Pharmacology Branch, DTP, NCI, 2025).

System: 282377-053-R-J1-PDC complex spheroids, viability
Assay: Anticancer human tumor 282377-053-R-J1-PDC patient-derived colon adenocarcinoma cell line growth inhibition [GQUAD]
Details: for IC50: curve of first compound; for viability, T/C: stronger effect = lower value; active = viability on the fitted dose curve at most 10% of control; inactive = the rest
Procedure, shortened: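 Viability of tumor cells grown as complex spheroids with endothelial and stromal cells, exposed to drug combinations. Top concentration at or near clinical Cmax (else 10 microM), diluted in half-log increments.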

[1] = second compound 0.0316 µM, first compound 0.0316 µM
[2] = second compound 0.0316 µM, first compound 0.1 µM
[3] = second compound 0.0316 µM, first compound 0.316 µM
[4] = second compound 0.0316 µM, first compound 1 µM
[5] = second compound 0.0316 µM, first compound 3.16 µM
[6] = second compound 0.0316 µM, first compound 10 µM
[7] = second compound 0.1 µM, first compound 0.0316 µM
[8] = second compound 0.1 µM, first compound 0.1 µM
[9] = second compound 0.1 µM, first compound 0.316 µM
[10] = second compound 0.1 µM, first compound 1 µM
[11] = second compound 0.1 µM, first compound 3.16 µM
[12] = second compound 0.1 µM, first compound 10 µM
[13] = second compound 0.316 µM, first compound 0.0316 µM
[14] = second compound 0.316 µM, first compound 0.1 µM
[15] = second compound 0.316 µM, first compound 0.316 µM
[16] = second compound 0.316 µM, first compound 1 µM
[17] = second compound 0.316 µM, first compound 3.16 µM
[18] = second compound 0.316 µM, first compound 10 µM
[19] = second compound 1 µM, first compound 0.0316 µM
[20] = second compound 1 µM, first compound 0.1 µM
[21] = second compound 1 µM, first compound 0.316 µM
[22] = second compound 1 µM, first compound 1 µM
[23] = second compound 1 µM, first compound 3.16 µM
[24] = second compound 1 µM, first compound 10 µM
[25] = second compound 3.16 µM, first compound 0.0316 µM
[26] = second compound 3.16 µM, first compound 0.1 µM
[27] = second compound 3.16 µM, first compound 0.316 µM
[28] = second compound 3.16 µM, first compound 1 µM
[29] = second compound 3.16 µM, first compound 3.16 µM
[30] = second compound 3.16 µM, first compound 10 µM
[31] = second compound 10 µM, first compound 0.0316 µM
[32] = second compound 10 µM, first compound 0.1 µM
[33] = second compound 10 µM, first compound 0.316 µM
[34] = second compound 10 µM, first compound 1 µM
[35] = second compound 10 µM, first compound 3.16 µM
[36] = second compound 10 µM, first compound 10 µM
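Also: spheroids exposed to compounds for 7 days before readout.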
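For viability, T/C in this document: percent of vehicle DMSO control viability with 100% = untreated-like growth.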

C=CCn1c(=O)c2cnc(Nc3ccc(N4CCN(C)CC4)cc3)nc2n1-c1cccc(C(C)(C)O)n1 + CN(C)c1ccc(Nc2c3ccc(NC(=O)CCN4CCCC4)cc3nc3cc(NC(=O)CCN4CCCC4)ccc23)cc1
2040 nM: IC50 (second compound 0.316 µM)
1860 nM: IC50 (second compound 1 µM)
1910 nM: IC50 (second compound 0.0316 µM)
1800 nM: IC50 (second compound 3.16 µM)
1980 nM: IC50 (second compound 0.1 µM)
inactive: viability, T/C [1] 94.2% | viability, T/C [2] 99.9% | viability, T/C [3] 83.3% | viability, T/C [4] 75.2% | viability, T/C [5] 30.8% | viability, T/C [6] 16.7% | viability, T/C [7] 108% | viability, T/C [8] 95.3% | viability, T/C [9] 82.7% | viability, T/C [10] 73.3% | viability, T/C [11] 33.9% | viability, T/C [12] 15.1% | viability, T/C [13] 105% | viability, T/C [14] 84.8% | viability, T/C [15] 74.5% | viability, T/C [16] 90.1% | viability, T/C [17] 26.5% | viability, T/C [18] 16.1% | viability, T/C [19] 85.2% | viability, T/C [20] 90.9% | viability, T/C [21] 94.2% | viability, T/C [22] 76.4% | viability, T/C [23] 27.5% | viability, T/C [24] 16.7% | viability, T/C [25] 92.8% | viability, T/C [26] 82.5% | viability, T/C [27] 92.8% | viability, T/C [28] 68.5% | viability, T/C [29] 31.8% | viability, T/C [30] 16.1% | viability, T/C [31] 86.7% | viability, T/C [32] 78.3% | viability, T/C [33] 104% | viability, T/C [34] 78.4% | viability, T/C [35] 39.1% | viability, T/C [36] 15.3%
2320 nM: IC50 (second compound 10 µM)

CC(C)(O)C1CCC(Nc2ccc3ncc(-c4cccc(C(F)(F)F)c4)n3n2)CC1 (centres undefined) + CN(C)c1ccc(Nc2c3ccc(NC(=O)CCN4CCCC4)cc3nc3cc(NC(=O)CCN4CCCC4)ccc23)cc1
2150 nM: IC50 (second compound 0.1 µM)
inactive: viability, T/C [1] 121% | viability, T/C [2] 100% | viability, T/C [3] 74% | viability, T/C [4] 76.4% | viability, T/C [5] 21% | viability, T/C [6] 29% | viability, T/C [7] 123% | viability, T/C [8] 85% | viability, T/C [9] 76.7% | viability, T/C [10] 87.4% | viability, T/C [11] 22.7% | viability, T/C [12] 39.8% | viability, T/C [13] 106% | viability, T/C [14] 86% | viability, T/C [15] 64.9% | viability, T/C [16] 86.5% | viability, T/C [17] 22.2% | viability, T/C [18] 29.8% | viability, T/C [19] 94% | viability, T/C [20] 75.4% | viability, T/C [21] 85.6% | viability, T/C [22] 73.1% | viability, T/C [23] 19.6% | viability, T/C [24] 31.3% | viability, T/C [25] 100% | viability, T/C [26] 97.2% | viability, T/C [27] 105% | viability, T/C [28] 71% | viability, T/C [29] 23.4% | viability, T/C [30] 21.8% | viability, T/C [31] 97.3% | viability, T/C [32] 95.5% | viability, T/C [33] 83.2% | viability, T/C [34] 64.7% | viability, T/C [35] 18.3% | viability, T/C [36] 19.1%
2000 nM: IC50 (second compound 0.316 µM)
1800 nM: IC50 (second compound 0.0316 µM)
1650 nM: IC50 (second compound 3.16 µM)
1750 nM: IC50 (second compound 1 µM)
1430 nM: IC50 (second compound 10 µM)
